From patent EP0858509B1, “DNA SEQUENCES ENCODING CMH-1, A CYSTEINE PROTEASE INVOLVED IN APOPTOSIS” (VERTEX PHARMACEUTICALS INCORPORATED, priority 1995, dated 1997) come the findings set out here.

In this test the target is T1, CMH-1 (Homo sapiens, UniProt P55210).
T1 construct: we expressed an N-terminal (His)6-tagged CMH-1(Ala24-Gln303) in E. coli; made in house; host or cells: E. coli BL21(DE3), pET-15b
T1 sequence (P55210 24-303): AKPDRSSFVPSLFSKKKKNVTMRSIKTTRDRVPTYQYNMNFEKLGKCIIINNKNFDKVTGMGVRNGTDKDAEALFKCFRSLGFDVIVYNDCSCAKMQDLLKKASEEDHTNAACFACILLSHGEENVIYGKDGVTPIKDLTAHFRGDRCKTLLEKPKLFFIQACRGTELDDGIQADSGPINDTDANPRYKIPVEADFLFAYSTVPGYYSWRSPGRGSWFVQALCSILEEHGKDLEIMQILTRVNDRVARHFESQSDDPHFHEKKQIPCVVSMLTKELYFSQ
T1 sequence (P55210 199-303): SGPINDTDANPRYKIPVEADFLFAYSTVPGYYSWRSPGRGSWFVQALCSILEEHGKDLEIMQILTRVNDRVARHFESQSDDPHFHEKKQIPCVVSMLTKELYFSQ
Put plainly: Inhibition of in vitro cleavage of 35S-labelled PARP by CMH-1 (SDS-PAGE and fluorography). The format is biochemical. As to conditions: 35S-labelled PARP as substrate, Fig. 4, panel B. On the procedure: In order to determine the activity of purified CMH-1, we determined whether the protein could cleave ^35[S]-labeled pro-IL-1b and PARP and compared its cleavage activity to purified ICE. We prepared ^35[S]-labeled PARP and IL-1b precursor (pro-IL-1b) by in vitro transcription and translation. Cleavage experiments were carried out as described previously [Y. Gu et al., J. Biol. Chem. (1995)]. Cleavage products were analyzed by SDS-PAGE and fluorography as described in that reference.
On to YVAD-CHO, for which the “inhibition of the cleavage activity of CMH-1” value (“inhibition” for short) is “not”.

As for `CCN1C(=O)C=CC1=O` [N-ethylmaleimide], the “inhibition” value is recorded as “inhibited”.

As for `NC(=O)CI` [iodoacetamide], the “inhibition” value was “inhibited”.
